Test results from patent US8835458B2 (Hanmi Science Co., Ltd, priority 2010, dated 2014).
Read-outs that look alike come from different tables or passages of the source.

What was measured:
caspase 3/7 = assay: Evaluation of caspase activity (Caspase-Glo 3/7 Assay Kit); assay type: cell-based; conditions: MDA-MB-231 cells, 12 hours, compared to untreated MDA-MB-231 cells; 0.5, 1, 5 μM tested
Description: (§1) MDA-MB-231 breast cancer cells (ATCC #HTB-26) were plated in 96-well plates at a density of 1.0 1.5×10^4 cells/well. […] Then, media were removed and the cells were washed two times with PBS at 4° C. The cells were treated with a solution of the analysis samples and media (1:1) in an amount of 140 μL/well using Caspase-GloTM 9 Assay Kit (Cat#. […]; Promega, USA) and Caspase-GloTM 3/7 Assay Kit (Cat#. […]; Promega, USA). After the cells were incubated at 37° C. for 2 hours, luminescence was measured using InfiniteTM M1000 multi reader (Tecan). […] The values were represented as “***” for six fold or more, “**” for 4 fold to below 6 fold, and “*” for 1 fold to below 4 fold, as compared to that of untreated, normal MDA-MB-231 breast cancer cell lines.

[1] = Toxicity to normal cells (SRB); assay type: cell-based, human; conditions: human, Hs27 fibroblasts (normal cell line)
Summary of the method: (§2)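 GI50 values come from growth equations comparing treated, untreated and medium-only wells. Fibroblasts (Hs27, Balb/c3t3) got 72 h compound exposure with SRB read-out at 540 nm after TCA fixing. MDA-MB-231 got 120 h with MTS at 490 nm, across 10 μM˜0.1 nM.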

caspase 9 = assay: Evaluation of caspase activity (Caspase-Glo 9 Assay Kit); assay type: cell-based; conditions: MDA-MB-231 cells, 16 hours, compared to untreated MDA-MB-231 cells; 0.5, 1, 5 μM tested
Description: as §1

[2] = Toxicity to normal cells (SRB); assay type: cell-based, mouse; conditions: mouse, Balb/c3t3 fibroblasts (normal cell line), read-out: BalB/C (GI50)
Summary of the method: as §2

[3] = system: MDA-MB-231 breast cancer cell lines; assay: Evaluation of inhibition on cell growth (MTS); assay type: cell-based
Summary of the method: as §2

Hs27 fibroblasts = assay: Toxicity to normal cells (SRB); assay type: cell-based, human; conditions: normal cell line, 72 hours
Summary of the method: as §2

Balb/c3t3 fibroblasts = assay: Toxicity to normal cells (SRB); assay type: cell-based, mouse; conditions: normal cell line, 72 hours, read-out: BalB/C (GI50)
Summary of the method: as §2

[4] = Homo sapiens, MDA-MB-231, 120 hours

Row | Molecule | GI50 [3, 4] [µM] | Caspase-3 (caspase 3/7) | GI50 at 72 h [1] [µM] | Caspase-9 (caspase 9) | GI50 at 72 h [2] [µM] | GI50 (Hs27 fibroblasts) [µM] | GI50 (Balb/c3t3 fibroblasts) [µM] | GI50 ([3]; 120 hours) [µM]
1 | CN[C@@H](C)C(=O)N[C@H](C(=O)N1CCC[C@H]1C(=O)Nc1cc2c(Nc3cccc(Cl)c3F)ncnc2cc1OC)C(C)(C)C.Cl [Example 7] |  | *** (six fold or more) |  | *** (six fold or more) |  |  |  | 
2 | (S)—N—((S)-1-((S)-2-(4-((4-bromo-2-fluorophenylamino)-6-methoxyquinazolinyl-7-oxy)methyl)piperidine)-1-carbonyl)-1-pyrrolidinyl)-3,3-dimethyloxobutan-2-yl)-2-(methylamino)propanamide hydrochloride [Example 44] |  |  |  |  |  | > 10 | > 10 | ≤ 0.1
3 | CN[C@@H](C)C(=O)N[C@H](C(=O)N1CCC[C@H]1C(=O)Nc1cc2c(Nc3cccc(Cl)c3F)ncnc2cc1OCCOC)C(C)(C)C.Cl [Example 2, (S)—N-(4-(3-chloro-2-fluorophenylamino)-7-(2-methoxyethoxy)quinazolin-6-yl)-1-((S)-3,3-dimethyl-2-((S)-2-(methylamino)propanamido)butanoyl)pyrrolidine-2-carboxamide hydrochloride] | 0.1 to 1 | ** (4 fold to below 6 fold) | > 10 | * (1 fold to below 4 fold) | > 10 |  |  | 
4 | CN[C@@H](C)C(=O)N[C@H](C(=O)N1CCC[C@H]1C(=O)Nc1cc2c(Nc3ccc(F)c(Cl)c3F)ncnc2cc1OC)C1CCCCC1.Cl [Example 15, (S)—N-(4-(3-chloro-2,4-difluorophenylamino)-7-methoxyquinazolin-6-yl)-1-((S)-2-cyclohexyl-2-((S)-2-(methylamino)propanamido)acetyl)pyrrolidine-2-carboxamide hydrochloride] | ≤ 0.1 | *** (six fold or more) | > 10 | *** (six fold or more) | > 10 |  |  | 
5 | CN[C@@H](C)C(=O)N[C@H](C(=O)N1CCC[C@H]1C(=O)Nc1cc2c(Nc3ccc(Br)cc3F)ncnc2cc1OC)C(C)(C)C.Cl [Example 9, (S)—N-(4-(4-bromo-2-fluorophenylamino)-7-methoxyquinazolin-6-yl)-1-((S)-3,3-dimethyl-2-((S)-2-(methylamino)propanamido)butanoyl)pyrrolidine-2-carboxamide hydrochloride] | ≤ 0.1 | *** (six fold or more) | > 10 | *** (six fold or more) | > 10 |  |  | 
6 | CN[C@@H](C)C(=O)N[C@H](C(=O)N1CCC[C@H]1C(=O)Nc1cc2c(Nc3ccc(Cl)c(Cl)c3F)ncnc2cc1OC)C(C)(C)C.Cl [Example 8, (S)—N-(4-(3,4-dichloro-2-fluorophenylamino)-7-methoxyquinazolin-6-yl)-1-((S)-3,3-dimethyl-2-((S)-2-(methylamino)propanamido)butanoyl)pyrrolidine-2-carboxamide hydrochloride] | ≤ 0.1 | *** (six fold or more) | > 10 | *** (six fold or more) | > 10 |  |  | 
7 | CN[C@@H](C)C(=O)N[C@H](C(=O)N1CCC[C@H]1C(=O)Nc1cc2c(Nc3ccc(NC(=O)c4ccccc4)cc3)ncnc2cc1OC)C(C)(C)C [Example 76, (S)—N-(4-(4-benzamidophenylamino)-7-methoxyquinazolin-6-yl)-1-((S)-3,3-dimethyl-2-((S)-2-(methylamino)propanamido)butanoyl)pyrrolidine-2-carboxamide] | ≤ 0.1 |  | > 10 |  | > 10 |  |  | 

Further lines, with some results ahead:

Row | GI50 [3, 4] [µM] | Molecule | Caspase-3 (caspase 3/7) | GI50 at 72 h [1] [µM] | Caspase-9 (caspase 9) | GI50 at 72 h [2] [µM] | GI50 (Hs27 fibroblasts) [µM] | GI50 (Balb/c3t3 fibroblasts) [µM] | GI50 ([3]; 120 hours) [µM]
8 | ≤ 0.1 | CN[C@@H](C)C(=O)N[C@H](C(=O)N1CCC[C@H]1C(=O)Nc1cc2c(Nc3ccc(Oc4ccc(C)nc4)c(Cl)c3)ncnc2cc1OC)C(C)(C)C.Cl [Example 19, (S)—N-(4-(3-chloro-4-(6-methylpyridin-3-yloxy)phenylamino)-7-methoxyquinazolin-6-yl)-1-((S)-3,3-dimethyl-2-((S)-2-(methylamino)propanamido)butanoyl)pyrrolidine-2-carboxamide hydrochloride] | *** (six fold or more) | > 10 | *** (six fold or more) | > 10 |  |  | 
9 | ≤ 0.1 | CN[C@@H](C)C(=O)N[C@H](C(=O)N1CCC[C@H]1C(=O)Nc1cc2c(Nc3ccccc3F)ncnc2cc1OC)C(C)(C)C.Cl [Example 10, (S)-1-((S)-3,3-dimethyl-2-((S)-2-(methylamino)propanamido)butanoyl)-N-(4-(2-fluorophenylamino)-7-methoxyquinazolin-6-yl)pyrrolidine-2-carboxamide hydrochloride] | *** (six fold or more) | > 10 | *** (six fold or more) | > 10 |  |  | 
10 | ≤ 0.1 | CN[C@@H](C)C(=O)N[C@H](C(=O)N1CCC[C@H]1C(=O)Nc1cc2c(Nc3ccccc3)ncnc2cc1OC)C(C)(C)C.Cl [Example 11, (S)—N-(4-phenylamino-7-methoxyquinazolin-6-yl)-1-((S)-3,3-dimethyl-2-((S)-2-(methylamino)propanamido)butanoyl)pyrrolidine-2-carboxamide hydrochloride] | *** (six fold or more) | > 10 | *** (six fold or more) | > 10 |  |  | 
11 | ≤ 0.1 | CN[C@@H](C)C(=O)N[C@H](C(=O)N1CCC[C@H]1C(=O)Nc1cc2c(Nc3ccc(F)c(F)c3F)ncnc2cc1OC)C(C)(C)C.Cl [Example 17, (S)-1-((S)-3,3-dimethyl-2-((S)-2-(methylamino)propanamido)butanoyl)-N-(7-methoxy-4-(2,3,4-trifluorophenylamino)quinazolin-6-yl)pyrrolidine-2-carboxamide hydrochloride] | *** (six fold or more) | > 10 | *** (six fold or more) | > 10 |  |  | 
12 | ≤ 0.1 | CN[C@@H](C)C(=O)N[C@H](C(=O)N1CCC[C@H]1C(=O)Nc1cc2c(Nc3ccc(F)c(Cl)c3F)ncnc2cc1OC)C(C)(C)C.Cl [Example 1, (S)—N-(4-(3-chloro-2,4-difluorophenylamino)-7-methoxyquinazolin-6-yl)-1-((S)-3,3-dimethyl-2-((S)-2-(methylamino)propanamido)butanoyl)pyrrolidine-2-carboxamide hydrochloride] | *** (six fold or more) | > 10 | *** (six fold or more) | > 10 |  |  | 
13 | ≤ 0.1 | CN[C@@H](C)C(=O)N[C@H](C(=O)N1CCC[C@H]1C(=O)Nc1cc2c(NCc3ccccc3)ncnc2cc1OC)C(C)(C)C.Cl [Example 18, (S)—N-(4-benzylamino-7-methoxyquinazolin-6-yl)-1-((S)-3,3-dimethyl-2-((S)-2-(methylamino)propanamido)butanoyl)pyrrolidine-2-carboxamide hydrochloride] | *** (six fold or more) | > 10 | *** (six fold or more) | > 10 |  |  | 
